In patent US9403855B2 (priority 2010, dated 2016):

What was measured:
[1] = target: T1, H274Y neuraminidase mutant from A/WSN/1933 (H1N1) (Influenza A virus, UniProt P03470, H259Y); test: cell-based; set-up: species or system Influenza virus A/WSN/1933 (H1N1) H274Y mutant
[2] = target: T1, H274Y neuraminidase mutant from A/WSN/1933 (H1N1); test: biochemical; set-up: species or system Influenza virus A/WSN/1933 (H1N1) H274Y mutant

CC(=O)N[C@H]1[C@H]([C@H](O)[C@H](O)CO)OC(P(=O)(O)O)=C[C@@H]1N [1a, (5-Acetamido-4-amino-6-(1,2,3-hydroxy)propyl-4,5,6-trihydropyran-2-yl) phosphonic acid]
EC50 [1]: 27 nM | IC50 [2]: 0.5 nM

CC(=O)N[C@H]1[C@H]([C@H](O)[C@H](O)CO)OC(P(=O)(O)O)=C[C@@H]1NC(=N)N [1b, (5-Acetamido-4-guanidino-6-(1,2,3-hydroxy)propyl-4,5,6-trihydropyran-2-yl) phosphonic acid]
EC50 [1]: 26 nM | IC50 [2]: 0.25 nM
